# In the supplement of paper PMC10307832:
# Assays:
# Assay in all cases: relative viability (nuclei count vs DMSO), 5 days (fraction); higher = more cells survive
# [1] = compound: CC(O)(CS(=O)(=O)c1ccc(F)cc1)C(=O)Nc1ccc(C#N)c(C(F)(F)F)c1 [Bicalutamide] + O=C(CCCCCCC(=O)Nc1ccccc1)NO [Vorinostat] (partner 1 µM)
# Procedure, shortened: (§1)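 Dosing by pin tool came one day after lung cancer cell lines were seeded in 1536-well plates, using either one drug or a fixed anchor-drug dose plus five library-drug doses (not always all listed) in √10 steps. After 5 days, nuclei were counted on 4× images. Relative viability is treated-well nuclei count divided by vehicle-well nuclei count, and values are medians of duplicate plates.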
# [2] = compound: C(C(=O)C(=O)O)Br [Bromopyruvate] + C[C@@H](Oc1cc(-c2cnn(C3CCNCC3)c2)cnc1N)c1c(Cl)ccc(F)c1Cl [Crizotinib] (partner 1 µM)
# Procedure, shortened: as §1
# [3] = compound: CC(O)(CS(=O)(=O)c1ccc(F)cc1)C(=O)Nc1ccc(C#N)c(C(F)(F)F)c1 [Bicalutamide] + Cc1cc(Nc2cc(N3CCN(C)CC3)nc(Sc3ccc(NC(=O)C4CC4)cc3)n2)n[nH]1 [Tozasertib] (partner 0.1 µM)
# Procedure, shortened: as §1
# [4] = compound: C(C(=O)C(=O)O)Br [Bromopyruvate] + Nc1ncn([C@H]2C[C@H](O)[C@@H](CO)O2)c(=O)n1 [Decitabine] (partner 2 µM)
# Procedure, shortened: as §1
Cell Line,relative viability ([1]; first compound 0.08 µM),relative viability ([1]; first compound 0.253 µM),relative viability ([1]; first compound 0.8 µM),relative viability ([1]; first compound 2.53 µM),relative viability ([2]; first compound 1 µM),relative viability ([2]; first compound 3.162 µM),relative viability ([2]; first compound 10 µM),relative viability ([2]; first compound 31.62 µM),relative viability ([2]; first compound 100 µM),relative viability ([3]; first compound 0.08 µM),relative viability ([3]; first compound 0.253 µM),relative viability ([3]; first compound 0.8 µM),relative viability ([3]; first compound 2.53 µM),relative viability ([4]; first compound 1 µM),relative viability ([4]; first compound 3.162 µM),relative viability ([4]; first compound 10 µM),relative viability ([4]; first compound 31.62 µM),relative viability ([4]; first compound 100 µM)
ChaGo-K-1,0.763,0.691,0.887,0.772,1.09,1.14,1.17,1.1,1.17,0.219,0.238,0.212,0.292,0.554,0.525,0.609,0.529,0.486
COR-L 105,0.983,0.712,0.944,0.717,0.716,1.09,0.739,0.583,0.439,0.391,0.348,0.408,0.387,0.59,0.674,0.75,0.706,0.525
NCI-H1975,0.73,0.742,0.703,0.557,0.95,0.955,1,0.981,0.955,0.785,0.711,0.745,0.514,0.396,0.402,0.341,0.394,0.413
NCI-H2009,0.732,0.719,0.898,0.71,1.05,1.1,1.03,0.921,0.724,0.777,0.664,0.723,0.649,0.352,0.42,0.336,0.349,0.261
SK-LU-1,0.871,0.856,0.82,0.699,1.05,0.99,0.831,0.856,0.794,0.341,0.291,0.295,0.319,0.704,0.606,0.56,0.597,0.623
NCI-H2347,0.574,0.587,0.709,0.581,0.753,0.602,0.951,0.595,0.684,0.625,0.511,0.597,0.504,0.605,0.643,0.541,0.616,0.635
HCC-366,0.368,0.331,0.52,0.134,0.569,0.54,0.947,0.548,0.474,0.133,0.0841,0.0976,0.0526,0.358,0.302,0.43,0.348,0.351
EMC-BAC-2,0.5,0.434,0.833,0.289,0.611,0.723,0.798,0.788,0.756,0.346,0.285,0.289,0.249,0.918,1.04,1,–,0.921
NCI-H3122,1.01,0.946,1.07,0.887,0.252,0.263,0.304,0.289,0.248,0.422,0.408,0.445,0.44,0.454,0.426,0.365,0.425,0.377
NCI-H358,0.804,0.604,0.662,0.544,0.681,0.702,0.521,0.604,0.64,0.136,0.108,0.108,0.105,0.2,0.21,0.223,0.247,0.238
NCI-H1944,0.54,0.516,0.593,0.438,1.08,1.09,1.12,1.07,1.14,0.246,0.232,0.256,0.257,0.419,0.423,0.503,0.39,0.44
EPLC-272H,0.437,0.401,0.573,0.479,0.773,0.996,0.999,0.92,0.911,0.238,0.224,0.25,0.237,0.371,0.376,0.426,0.437,0.389
NCI-H1915,0.536,0.456,0.584,0.522,0.836,0.862,0.885,0.923,0.878,0.434,0.447,0.491,0.381,0.258,0.273,0.268,0.249,0.271
NCI-H647,0.474,0.655,0.575,0.435,1.05,1.18,1.25,1.16,1.1,0.3,0.264,0.293,0.191,0.439,0.362,0.405,0.393,0.474
NCI-H441,0.924,0.755,0.778,0.751,0.884,0.739,0.661,0.82,0.337,0.496,0.689,0.631,0.585,0.324,0.238,0.243,0.22,0.242
NCI-H23,0.758,0.498,0.697,0.465,0.386,0.514,0.514,0.494,0.423,0.371,0.322,0.375,0.374,0.299,0.294,0.308,0.277,0.303
NCI-H650,0.449,0.518,0.513,0.367,0.7,0.721,0.678,0.634,0.711,0.792,0.747,0.885,0.653,0.295,0.322,0.316,0.281,0.26
SK-MES-1,1.21,1.07,1.19,1.03,0.974,0.952,1.02,0.997,1.05,1.08,0.853,0.867,0.66,0.362,0.494,0.353,0.427,0.337
